Measurements as given in ChEMBL document CHEMBL4715864, “Discovery of 2-(5-(quinolin-6-yl)-1,3,4-oxadiazol-2-yl)acetamide derivatives as novel PI3Kα inhibitors via docking-based virtual screening” (Bioorg Med Chem, 2021).

Columns and labels:
[1] = biological target: T1, Phosphatidylinositol 4,5-bisphosphate 3-kinase catalytic subunit delta isoform (Homo sapiens, UniProt O00329); assay: Inhibition of PI3Kdelta (unknown origin) using PIP2 as substrate measured after 1 hr by ADP-glo plus luminescence assay
T1 sequence (O00329 whole entry): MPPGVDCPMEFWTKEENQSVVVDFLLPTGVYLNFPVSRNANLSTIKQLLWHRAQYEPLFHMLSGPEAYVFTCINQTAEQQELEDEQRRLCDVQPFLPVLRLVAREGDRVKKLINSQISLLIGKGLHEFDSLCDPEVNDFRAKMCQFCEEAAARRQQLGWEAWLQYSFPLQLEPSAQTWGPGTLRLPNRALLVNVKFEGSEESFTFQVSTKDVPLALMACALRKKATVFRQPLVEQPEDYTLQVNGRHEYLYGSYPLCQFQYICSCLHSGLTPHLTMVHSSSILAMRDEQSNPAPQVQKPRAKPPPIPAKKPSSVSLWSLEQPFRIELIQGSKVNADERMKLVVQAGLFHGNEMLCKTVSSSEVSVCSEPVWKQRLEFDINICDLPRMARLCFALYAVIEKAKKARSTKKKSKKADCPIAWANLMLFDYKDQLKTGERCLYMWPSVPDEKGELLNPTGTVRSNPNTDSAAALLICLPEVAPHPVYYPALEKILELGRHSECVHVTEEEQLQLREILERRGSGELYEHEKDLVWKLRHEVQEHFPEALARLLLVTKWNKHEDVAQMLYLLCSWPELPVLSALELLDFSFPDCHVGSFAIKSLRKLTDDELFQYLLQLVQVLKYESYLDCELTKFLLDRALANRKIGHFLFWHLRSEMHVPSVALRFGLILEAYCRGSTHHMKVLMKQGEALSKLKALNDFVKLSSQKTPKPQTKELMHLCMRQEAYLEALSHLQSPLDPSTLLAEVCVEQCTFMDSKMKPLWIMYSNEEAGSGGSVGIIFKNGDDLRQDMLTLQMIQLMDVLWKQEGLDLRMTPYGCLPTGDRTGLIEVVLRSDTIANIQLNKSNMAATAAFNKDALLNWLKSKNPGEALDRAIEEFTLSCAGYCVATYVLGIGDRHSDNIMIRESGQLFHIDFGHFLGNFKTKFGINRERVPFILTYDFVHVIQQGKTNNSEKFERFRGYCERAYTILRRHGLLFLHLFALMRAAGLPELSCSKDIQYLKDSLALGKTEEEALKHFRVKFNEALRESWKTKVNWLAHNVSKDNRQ

[2] = biological target: T2, Phosphatidylinositol 4,5-bisphosphate 3-kinase catalytic subunit alpha isoform (Homo sapiens, UniProt P42336); assay: Inhibition of PI3Kalpha (unknown origin) using PIP2 as substrate measured after 1 hr by ADP-glo plus luminescence assay
Homo sapiens = organism: Homo sapiens; assay: Selectivity ratio of IC50 for PI3Kgamma (unknown origin) to IC50 for PI3Kalpha (unknown origin)
[3] = biological target: Phosphatidylinositol 4,5-bisphosphate 3-kinase catalytic subunit gamma isoform (Homo sapiens, UniProt P48736); assay: Inhibition of PI3Kgamma (unknown origin) using PIP2 as substrate measured after 1 hr by ADP-glo plus luminescence assay
[4] = biological target: Phosphatidylinositol 4,5-bisphosphate 3-kinase catalytic subunit beta isoform (Homo sapiens, UniProt P42338); assay: Inhibition of PI3Kbeta (unknown origin) using PIP2 as substrate measured after 1 hr by ADP-glo plus luminescence assay
[5] = biological target: T2, Phosphatidylinositol 4,5-bisphosphate 3-kinase catalytic subunit alpha isoform; assay: Inhibition of PI3Kalpha (unknown origin) assessed as inhibition rate using PIP2 as substrate at 10 uM measured after 1 hr by ADP-glo plus luminescence assay

T2 sequence (P42336 whole entry, canonical isoform): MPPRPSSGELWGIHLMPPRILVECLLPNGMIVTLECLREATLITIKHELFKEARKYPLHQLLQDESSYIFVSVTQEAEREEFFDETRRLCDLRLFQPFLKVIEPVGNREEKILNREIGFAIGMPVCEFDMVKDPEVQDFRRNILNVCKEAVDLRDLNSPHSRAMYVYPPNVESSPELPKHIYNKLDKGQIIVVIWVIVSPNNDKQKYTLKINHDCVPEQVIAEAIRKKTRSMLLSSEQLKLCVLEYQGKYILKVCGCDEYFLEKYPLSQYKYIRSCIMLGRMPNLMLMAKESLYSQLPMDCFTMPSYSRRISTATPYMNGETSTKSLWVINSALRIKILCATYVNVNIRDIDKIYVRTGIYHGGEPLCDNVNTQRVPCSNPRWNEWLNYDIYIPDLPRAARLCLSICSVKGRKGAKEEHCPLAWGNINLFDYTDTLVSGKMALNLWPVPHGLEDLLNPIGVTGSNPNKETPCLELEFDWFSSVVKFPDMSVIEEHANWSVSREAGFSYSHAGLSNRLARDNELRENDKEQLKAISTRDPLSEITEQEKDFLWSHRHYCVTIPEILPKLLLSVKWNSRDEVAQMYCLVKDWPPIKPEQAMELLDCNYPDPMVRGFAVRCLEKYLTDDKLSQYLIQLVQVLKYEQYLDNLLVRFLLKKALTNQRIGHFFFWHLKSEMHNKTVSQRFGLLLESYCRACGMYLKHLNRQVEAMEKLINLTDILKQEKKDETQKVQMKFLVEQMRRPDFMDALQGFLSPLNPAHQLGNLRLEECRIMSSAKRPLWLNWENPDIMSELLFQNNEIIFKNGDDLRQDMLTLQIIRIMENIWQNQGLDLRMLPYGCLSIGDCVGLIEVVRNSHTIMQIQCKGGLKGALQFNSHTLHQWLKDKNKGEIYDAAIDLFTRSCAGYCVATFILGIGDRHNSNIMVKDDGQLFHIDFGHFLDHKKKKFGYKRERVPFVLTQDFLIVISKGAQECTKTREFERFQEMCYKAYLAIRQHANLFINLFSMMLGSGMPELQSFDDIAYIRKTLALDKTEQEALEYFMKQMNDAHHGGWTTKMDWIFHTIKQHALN
Sequence of Phosphatidylinositol 4,5-bisphosphate 3-kinase catalytic subunit beta isoform (P42338 whole entry, canonical isoform): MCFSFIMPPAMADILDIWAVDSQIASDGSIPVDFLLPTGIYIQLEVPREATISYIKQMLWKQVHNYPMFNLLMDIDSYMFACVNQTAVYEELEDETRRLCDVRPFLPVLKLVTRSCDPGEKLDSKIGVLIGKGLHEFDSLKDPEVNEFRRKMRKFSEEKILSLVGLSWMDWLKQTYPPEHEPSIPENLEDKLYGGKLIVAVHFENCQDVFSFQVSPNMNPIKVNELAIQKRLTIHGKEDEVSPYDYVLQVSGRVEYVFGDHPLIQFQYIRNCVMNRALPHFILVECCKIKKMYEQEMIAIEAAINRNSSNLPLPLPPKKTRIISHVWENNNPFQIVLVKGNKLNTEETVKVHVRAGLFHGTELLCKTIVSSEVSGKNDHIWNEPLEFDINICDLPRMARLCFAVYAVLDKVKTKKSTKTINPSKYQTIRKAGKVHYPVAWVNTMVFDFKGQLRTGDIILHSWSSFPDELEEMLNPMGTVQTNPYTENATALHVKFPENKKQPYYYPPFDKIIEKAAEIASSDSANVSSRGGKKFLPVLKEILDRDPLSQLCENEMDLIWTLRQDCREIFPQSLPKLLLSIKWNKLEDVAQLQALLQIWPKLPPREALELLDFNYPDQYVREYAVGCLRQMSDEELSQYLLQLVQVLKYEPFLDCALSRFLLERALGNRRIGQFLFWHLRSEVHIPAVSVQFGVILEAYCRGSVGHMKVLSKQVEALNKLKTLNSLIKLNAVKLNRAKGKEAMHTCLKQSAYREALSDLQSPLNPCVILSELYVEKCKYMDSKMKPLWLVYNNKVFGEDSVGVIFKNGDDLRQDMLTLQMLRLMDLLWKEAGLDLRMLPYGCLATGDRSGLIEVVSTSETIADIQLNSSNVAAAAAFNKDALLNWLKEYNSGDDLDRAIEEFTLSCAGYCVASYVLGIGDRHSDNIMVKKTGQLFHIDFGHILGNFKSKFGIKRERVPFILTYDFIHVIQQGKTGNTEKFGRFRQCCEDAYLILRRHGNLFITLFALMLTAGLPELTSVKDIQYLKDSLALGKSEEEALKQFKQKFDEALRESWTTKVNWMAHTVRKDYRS
Sequence of Phosphatidylinositol 4,5-bisphosphate 3-kinase catalytic subunit gamma isoform (P48736 whole entry, canonical isoform): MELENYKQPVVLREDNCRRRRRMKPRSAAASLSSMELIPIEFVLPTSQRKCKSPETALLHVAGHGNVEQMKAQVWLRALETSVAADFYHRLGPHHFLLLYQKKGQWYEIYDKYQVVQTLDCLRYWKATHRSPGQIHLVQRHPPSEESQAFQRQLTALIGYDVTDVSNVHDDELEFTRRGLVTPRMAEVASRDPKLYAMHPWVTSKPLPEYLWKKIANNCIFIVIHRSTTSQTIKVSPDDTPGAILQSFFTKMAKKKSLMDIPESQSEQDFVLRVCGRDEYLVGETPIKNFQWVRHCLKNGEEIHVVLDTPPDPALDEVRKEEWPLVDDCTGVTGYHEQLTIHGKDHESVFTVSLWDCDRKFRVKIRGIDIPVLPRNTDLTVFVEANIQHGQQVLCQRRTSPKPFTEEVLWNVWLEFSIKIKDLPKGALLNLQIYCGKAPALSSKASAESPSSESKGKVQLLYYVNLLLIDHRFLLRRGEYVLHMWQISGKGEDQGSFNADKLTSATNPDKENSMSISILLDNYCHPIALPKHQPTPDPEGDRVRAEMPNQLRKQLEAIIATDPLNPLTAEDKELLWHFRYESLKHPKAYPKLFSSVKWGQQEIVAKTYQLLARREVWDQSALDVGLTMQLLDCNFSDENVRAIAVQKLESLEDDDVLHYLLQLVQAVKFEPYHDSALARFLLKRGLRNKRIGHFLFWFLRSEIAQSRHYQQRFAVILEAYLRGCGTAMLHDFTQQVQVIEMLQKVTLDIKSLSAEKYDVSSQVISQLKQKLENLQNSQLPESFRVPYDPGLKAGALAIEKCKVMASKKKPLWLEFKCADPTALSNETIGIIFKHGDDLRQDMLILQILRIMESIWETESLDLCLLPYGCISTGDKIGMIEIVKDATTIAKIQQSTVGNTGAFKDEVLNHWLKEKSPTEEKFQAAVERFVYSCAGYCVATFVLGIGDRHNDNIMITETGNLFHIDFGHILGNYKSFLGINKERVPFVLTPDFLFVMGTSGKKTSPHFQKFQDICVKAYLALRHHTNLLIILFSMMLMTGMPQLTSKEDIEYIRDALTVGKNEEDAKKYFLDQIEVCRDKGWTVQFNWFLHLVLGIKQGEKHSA

SMILES	IC50 [2] [µM]	further results
COc1ccc(CNC(=O)Cc2nnc(-c3ccc4ncccc4c3)o2)cc1OC	7.6	IC50 [1]: 14.2 µM; Ratio IC50 (Homo sapiens): 20; IC50 [3]: 152 µM; IC50 [4]: 4.1 µM
O=C(Cc1nnc(-c2ccc3ncccc3c2)o1)NCc1ccc(F)cc1Cl	15.6	inhibition [5]: 55.5%
O=C(Cc1nnc(-c2ccc3ncccc3c2)o1)NCCc1ccccc1	29.2	inhibition [5]: 73.8%
COc1ccc(NC(=O)Cc2nnc(-c3ccc4ncccc4c3)o2)cc1OC	> 200	–
COc1ccccc1CNC(=O)Cc1nnc(-c2ccc3ncccc3c2)o1	18.3	–
N#Cc1cc(NC(=O)Cc2nnc(-c3ccc4ncccc4c3)o2)ccc1F	> 200	–
CC(C)NC(=O)CSc1nc(-c2ccc3c(c2)OCO3)nc2cc(=O)[nH]n12	17	inhibition [5]: 71.9%
O=C(Cc1nnc(-c2ccc3c(c2)OCO3)o1)NCc1ccc(F)cc1	> 200	–
O=C(Cc1nnc(-c2ccccn2)o1)NCc1ccc(F)cc1Cl	> 200	–
O=C(Cc1nnc(-c2ccc3ncccc3c2)o1)NCCc1ccc(Cl)cc1	6.6	IC50 [1]: 16.6 µM; IC50 [3]: 9.8 µM; IC50 [4]: 2.6 µM
O=C(Cc1nnc(-c2ccc3ncccc3c2)o1)Nc1ccc(OC(F)(F)F)cc1	> 200	–
O=C(Cc1nnc(-c2ccc3ncccc3c2)o1)N1CCN(c2ccccc2)CC1	> 200	–
O=C(Cc1nnc(-c2ccc3ncccc3c2)o1)Nc1cccc(C(F)(F)F)c1	> 200	–
